From ChEMBL document CHEMBL3886786, “1,3 substituted azetidine PDE10 inhibitors” (2016)

Target: cAMP and cAMP-inhibited cGMP 3',5'-cyclic phosphodiesterase 10A (Homo sapiens, UniProt Q9Y233)
Assay: Fluorescence Polarization Assay: The fluorescence polarization assay for cyclic nucleotide phosphodiesterases was performed using an IMAP® FP kit supplied by Molecular Devices, Sunnyvale, Calif. (product # R8139). IMAP® technology has been applied previously to phosphodiesterase assays (Huang, W., et al., J. Biomol Screen, 2002, 7: 215). Assays were performed at room temperature in 384-well microtiter plates with an incubation volume of 20.2 μL. Solutions of test compounds were prepared in DMSO and serially diluted with DMSO to yield 8 μL of each of 10 solutions differing by 3-fold in concentration, at 32 serial dilutions per plate. 100% inhibition is determined using a known PDE10 inhibitor, which can be any compound that is present at 5,000 times its Ki value in the assay described as follows, such as papaverine (see Siuciak, et al. Neuropharmacology (2006) 51:386-396; Becker, et al. Behav Brain Res (2008) 186(2):155-60; Threlfell, et al., J Pharmacol Exp Ther (2009) 328(3):785-795), 2-{4-[pyridin-4-yl-1-(2,2,2-trifluoroethyl)-1H-pyrazol-3-yl]phenoxymethyl}quinoline succinic acid or 2-[4-(1-methyl-4-pyridin-4-yl-1H-pyrazol-3-yl)-phenoxymethyl]quinoline succinic acid (see Schmidt, et al. J Pharmacol Exp Ther (2008) 325:681-690; Threlfell, et al., J Pharmacol Exp Ther (2009) 328(3): 785-795). 0% of inhibition is determined by using DMSO (1% final concentrations). […]

Chain of cAMP and cAMP-inhibited cGMP 3',5'-cyclic phosphodiesterase 10A (Q9Y233 whole entry): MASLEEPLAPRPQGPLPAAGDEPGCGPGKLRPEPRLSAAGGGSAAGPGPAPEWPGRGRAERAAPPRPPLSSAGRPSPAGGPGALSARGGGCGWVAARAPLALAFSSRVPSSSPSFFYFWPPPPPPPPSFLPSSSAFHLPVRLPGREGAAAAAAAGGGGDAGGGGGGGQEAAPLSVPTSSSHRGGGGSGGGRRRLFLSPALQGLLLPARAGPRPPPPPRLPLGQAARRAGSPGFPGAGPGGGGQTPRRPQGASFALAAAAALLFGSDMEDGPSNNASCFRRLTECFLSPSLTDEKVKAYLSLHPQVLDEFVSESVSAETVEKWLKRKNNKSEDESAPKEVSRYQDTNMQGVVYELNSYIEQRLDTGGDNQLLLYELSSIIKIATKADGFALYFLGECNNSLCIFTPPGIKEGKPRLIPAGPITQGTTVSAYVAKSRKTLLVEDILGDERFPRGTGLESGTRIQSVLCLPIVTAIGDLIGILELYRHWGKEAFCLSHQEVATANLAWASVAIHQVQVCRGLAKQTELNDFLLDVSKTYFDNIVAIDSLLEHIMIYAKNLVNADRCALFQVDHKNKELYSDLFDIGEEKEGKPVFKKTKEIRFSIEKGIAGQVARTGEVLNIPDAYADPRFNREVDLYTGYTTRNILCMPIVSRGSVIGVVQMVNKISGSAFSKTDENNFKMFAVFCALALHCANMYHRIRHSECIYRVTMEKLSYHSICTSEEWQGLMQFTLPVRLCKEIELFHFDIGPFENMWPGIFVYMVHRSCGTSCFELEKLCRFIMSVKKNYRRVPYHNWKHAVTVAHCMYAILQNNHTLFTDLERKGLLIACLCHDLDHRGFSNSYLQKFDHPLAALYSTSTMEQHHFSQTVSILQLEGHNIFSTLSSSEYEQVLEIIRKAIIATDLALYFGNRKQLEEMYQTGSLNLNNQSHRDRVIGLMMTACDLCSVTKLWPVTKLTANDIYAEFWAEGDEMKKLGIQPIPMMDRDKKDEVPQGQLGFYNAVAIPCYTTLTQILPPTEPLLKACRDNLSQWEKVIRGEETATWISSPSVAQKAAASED

Cc1nc(N2CC(c3nc4ccccc4n3C)C2)cc(-n2nc(C)nc2C2CCOCC2)n1
Ki: 2.2 nM
